Experimental data reported in PubChem BioAssay (NCI).
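Exposure lasted 48 hours, with cells grown in 96-well plates and compounds tested at five concentrations. TGI denotes the concentration required for complete inhibition of growth.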

System: NCI-H460 lung
Assay: NCI tumour cell line growth inhibition, 48 h

| Structure (SMILES) | TGI [µM] |
| --- | --- |
| COC(=O)C12C3C4C1C1C2C3C41C(=O)NC(C)(C)CC(=O)O (configuration not stated) | 61 |

System: KM12 colon
Assay: NCI tumour cell line growth inhibition, 48 h

| Structure (SMILES) | TGI [µM] |
| --- | --- |
| N/C(=N\Nc1ccc(C(=O)O)cc1)c1cnccn1 | > 100 |
| CCN(CC)c1ccc(/C=C/C2=NN(c3cccc(S(=O)(=O)O)c3)C3(C2)SCC(=O)N3c2nc3ccccc3s2)cc1 (configuration not stated) | 60.5 |
| CC(C)NC(=O)OCc1c(COC(=O)NC(C)C)n(C)c2c1ccc1ccsc12 | 38.3 |
| COC(=O)C12C3C4C1C1C2C3C41C(=O)NC(C)(C)CC(=O)O (configuration not stated) | > 100 |

System: 786-0 renal
Assay: NCI tumour cell line growth inhibition, 48 h

| Structure (SMILES) | TGI [µM] |
| --- | --- |
| N/C(=N\Nc1ccc(C(=O)O)cc1)c1cnccn1 | > 100 |
| CCN(CC)c1ccc(/C=C/C2=NN(c3cccc(S(=O)(=O)O)c3)C3(C2)SCC(=O)N3c2nc3ccccc3s2)cc1 (configuration not stated) | > 100 |
| CC(C)NC(=O)OCc1c(COC(=O)NC(C)C)n(C)c2c1ccc1ccsc12 | 23.4 |
| COC(=O)C12C3C4C1C1C2C3C41C(=O)NC(C)(C)CC(=O)O (configuration not stated) | > 100 |

System: BT-549 breast
Assay: NCI tumour cell line growth inhibition, 48 h

| Structure (SMILES) | TGI [µM] |
| --- | --- |
| N/C(=N\Nc1ccc(C(=O)O)cc1)c1cnccn1 | > 100 |
| CCN(CC)c1ccc(/C=C/C2=NN(c3cccc(S(=O)(=O)O)c3)C3(C2)SCC(=O)N3c2nc3ccccc3s2)cc1 (configuration not stated) | > 100 |
| CC(C)NC(=O)OCc1c(COC(=O)NC(C)C)n(C)c2c1ccc1ccsc12 | 28.4 |
| COC(=O)C12C3C4C1C1C2C3C41C(=O)NC(C)(C)CC(=O)O (configuration not stated) | > 100 |

System: RPMI-8226 leukemia
Assay: NCI tumour cell line growth inhibition, 48 h

| Structure (SMILES) | TGI [µM] |
| --- | --- |
| N/C(=N\Nc1ccc(C(=O)O)cc1)c1cnccn1 | > 100 |
| CCN(CC)c1ccc(/C=C/C2=NN(c3cccc(S(=O)(=O)O)c3)C3(C2)SCC(=O)N3c2nc3ccccc3s2)cc1 (configuration not stated) | 66.8 |
| CC(C)NC(=O)OCc1c(COC(=O)NC(C)C)n(C)c2c1ccc1ccsc12 | 20.3 |
| COC(=O)C12C3C4C1C1C2C3C41C(=O)NC(C)(C)CC(=O)O (configuration not stated) | > 100 |

System: HT29 colon
Assay: NCI tumour cell line growth inhibition, 48 h

| Structure (SMILES) | TGI [µM] |
| --- | --- |
| N/C(=N\Nc1ccc(C(=O)O)cc1)c1cnccn1 | > 100 |
| CCN(CC)c1ccc(/C=C/C2=NN(c3cccc(S(=O)(=O)O)c3)C3(C2)SCC(=O)N3c2nc3ccccc3s2)cc1 (configuration not stated) | > 100 |
| CC(C)NC(=O)OCc1c(COC(=O)NC(C)C)n(C)c2c1ccc1ccsc12 | 38.5 |
| COC(=O)C12C3C4C1C1C2C3C41C(=O)NC(C)(C)CC(=O)O (configuration not stated) | > 100 |

System: HL-60(TB) leukemia
Assay: NCI tumour cell line growth inhibition, 48 h

| Structure (SMILES) | TGI [µM] |
| --- | --- |
| N/C(=N\Nc1ccc(C(=O)O)cc1)c1cnccn1 | 0.166 |
| CCN(CC)c1ccc(/C=C/C2=NN(c3cccc(S(=O)(=O)O)c3)C3(C2)SCC(=O)N3c2nc3ccccc3s2)cc1 (configuration not stated) | 80.3 |
| CC(C)NC(=O)OCc1c(COC(=O)NC(C)C)n(C)c2c1ccc1ccsc12 | 9.93 |
| COC(=O)C12C3C4C1C1C2C3C41C(=O)NC(C)(C)CC(=O)O (configuration not stated) | > 100 |

System: SK-MEL-2 melanoma
Assay: NCI tumour cell line growth inhibition, 48 h

| Structure (SMILES) | TGI [µM] |
| --- | --- |
| N/C(=N\Nc1ccc(C(=O)O)cc1)c1cnccn1 | > 100 |
| CCN(CC)c1ccc(/C=C/C2=NN(c3cccc(S(=O)(=O)O)c3)C3(C2)SCC(=O)N3c2nc3ccccc3s2)cc1 (configuration not stated) | > 100 |
| CC(C)NC(=O)OCc1c(COC(=O)NC(C)C)n(C)c2c1ccc1ccsc12 | 31.8 |
| COC(=O)C12C3C4C1C1C2C3C41C(=O)NC(C)(C)CC(=O)O (configuration not stated) | > 100 |

System: SK-MEL-28 melanoma
Assay: NCI tumour cell line growth inhibition, 48 h

| Structure (SMILES) | TGI [µM] |
| --- | --- |
| N/C(=N\Nc1ccc(C(=O)O)cc1)c1cnccn1 | > 100 |
| CCN(CC)c1ccc(/C=C/C2=NN(c3cccc(S(=O)(=O)O)c3)C3(C2)SCC(=O)N3c2nc3ccccc3s2)cc1 (configuration not stated) | > 100 |
| CC(C)NC(=O)OCc1c(COC(=O)NC(C)C)n(C)c2c1ccc1ccsc12 | 30 |
| COC(=O)C12C3C4C1C1C2C3C41C(=O)NC(C)(C)CC(=O)O (configuration not stated) | > 100 |

System: UACC-62 melanoma
Assay: NCI tumour cell line growth inhibition, 48 h

| Structure (SMILES) | TGI [µM] |
| --- | --- |
| N/C(=N\Nc1ccc(C(=O)O)cc1)c1cnccn1 | > 100 |
| CCN(CC)c1ccc(/C=C/C2=NN(c3cccc(S(=O)(=O)O)c3)C3(C2)SCC(=O)N3c2nc3ccccc3s2)cc1 (configuration not stated) | > 100 |
| CC(C)NC(=O)OCc1c(COC(=O)NC(C)C)n(C)c2c1ccc1ccsc12 | 22.9 |
| COC(=O)C12C3C4C1C1C2C3C41C(=O)NC(C)(C)CC(=O)O (configuration not stated) | > 100 |

System: SR leukemia
Assay: NCI tumour cell line growth inhibition, 48 h

| Structure (SMILES) | TGI [µM] |
| --- | --- |
| N/C(=N\Nc1ccc(C(=O)O)cc1)c1cnccn1 | > 100 |
| CCN(CC)c1ccc(/C=C/C2=NN(c3cccc(S(=O)(=O)O)c3)C3(C2)SCC(=O)N3c2nc3ccccc3s2)cc1 (configuration not stated) | 86.2 |
| CC(C)NC(=O)OCc1c(COC(=O)NC(C)C)n(C)c2c1ccc1ccsc12 | 8.45 |
| COC(=O)C12C3C4C1C1C2C3C41C(=O)NC(C)(C)CC(=O)O (configuration not stated) | > 100 |

System: MALME-3M melanoma
Assay: NCI tumour cell line growth inhibition, 48 h

| Structure (SMILES) | TGI [µM] |
| --- | --- |
| N/C(=N\Nc1ccc(C(=O)O)cc1)c1cnccn1 | > 100 |
| CCN(CC)c1ccc(/C=C/C2=NN(c3cccc(S(=O)(=O)O)c3)C3(C2)SCC(=O)N3c2nc3ccccc3s2)cc1 (configuration not stated) | > 100 |
| CC(C)NC(=O)OCc1c(COC(=O)NC(C)C)n(C)c2c1ccc1ccsc12 | 18.3 |
| COC(=O)C12C3C4C1C1C2C3C41C(=O)NC(C)(C)CC(=O)O (configuration not stated) | > 100 |

System: EKVX NSCLC
Assay: NCI tumour cell line growth inhibition, 48 h

| Structure (SMILES) | TGI [µM] |
| --- | --- |
| N/C(=N\Nc1ccc(C(=O)O)cc1)c1cnccn1 | > 100 |
| CCN(CC)c1ccc(/C=C/C2=NN(c3cccc(S(=O)(=O)O)c3)C3(C2)SCC(=O)N3c2nc3ccccc3s2)cc1 (configuration not stated) | > 100 |
| CC(C)NC(=O)OCc1c(COC(=O)NC(C)C)n(C)c2c1ccc1ccsc12 | 48.1 |
| COC(=O)C12C3C4C1C1C2C3C41C(=O)NC(C)(C)CC(=O)O (configuration not stated) | > 100 |

System: A498 renal
Assay: NCI tumour cell line growth inhibition, 48 h

| Structure (SMILES) | TGI [µM] |
| --- | --- |
| N/C(=N\Nc1ccc(C(=O)O)cc1)c1cnccn1 | > 100 |
| CCN(CC)c1ccc(/C=C/C2=NN(c3cccc(S(=O)(=O)O)c3)C3(C2)SCC(=O)N3c2nc3ccccc3s2)cc1 (configuration not stated) | 99 |
| CC(C)NC(=O)OCc1c(COC(=O)NC(C)C)n(C)c2c1ccc1ccsc12 | 35.3 |
| COC(=O)C12C3C4C1C1C2C3C41C(=O)NC(C)(C)CC(=O)O (configuration not stated) | > 100 |

System: PC-3 prostate
Assay: NCI tumour cell line growth inhibition, 48 h

| Structure (SMILES) | TGI [µM] |
| --- | --- |
| N/C(=N\Nc1ccc(C(=O)O)cc1)c1cnccn1 | > 100 |
| CCN(CC)c1ccc(/C=C/C2=NN(c3cccc(S(=O)(=O)O)c3)C3(C2)SCC(=O)N3c2nc3ccccc3s2)cc1 (configuration not stated) | > 100 |
| CC(C)NC(=O)OCc1c(COC(=O)NC(C)C)n(C)c2c1ccc1ccsc12 | 39.9 |
| COC(=O)C12C3C4C1C1C2C3C41C(=O)NC(C)(C)CC(=O)O (configuration not stated) | > 100 |
